Test [1] has as its target T1, HIF-2α HIS TAG-PASB Domain (Homo sapiens, UniProt Q99814).
T1 construct: 100 nM HIF-2α HIS TAG-PASB Domain
Put plainly: HIF-2α Scintillation Proximity Assay (SPA). It counts as binding. An outline of the steps:
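IC50 values rest on percent inhibition, where the sample signal is scaled between high and low controls. Wells contain about 100 μL: compound dispensed as 2 μL of DMSO solution, 88 μL protein-probe mix and 10 μL of beads.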

For the next test, the system named is 786-O-Hif-Luc cells. Briefly: Luciferase Assay (HIF responsive elements reporter).
Setting [2] is: read-out: Scintillation Proximity Assay IC50.
Where [3] appears, read: read-out: Mean Luciferase EC50 (nM), 786-O-Hif-Luc cells.

Where two headings read alike, the source gives them in different places. Where only a bound is given, the exact number is not on record here.

T1 sequence (Q99814 240-350 limits assumed): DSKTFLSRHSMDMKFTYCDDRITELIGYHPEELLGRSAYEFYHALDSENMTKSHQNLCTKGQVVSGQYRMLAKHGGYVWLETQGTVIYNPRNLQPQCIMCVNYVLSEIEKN
Method for 786-O-Hif-Luc cells: A pool of infected cells were then selected against 2 μg/mL of puromycin (P8833, Sigma) for 10 days followed by limited dilution to select single clones. […] Each concentration was tested in triplicate. After about 24 hours, luciferase activity was determined using ONE-Glo Luciferase Assay Reagent (E6110, Promega) following the manufacturer's recommended procedure. EC50 were calculated using Dotmatics software.

For the compound `N#Cc1cccc(Oc2ccc3c(c2C(F)F)[C@@H](O)C(F)(F)S3(=O)=O)c1` [Compound 435], the IC50 in test [1] (setting [2]) is less than 50 nM. Also, in the test with 786-O-Hif-Luc cells (setting [3]), the EC50 was less than 50 nM.

As for `O=S(=O)(c1ccc(Oc2ccc(F)c(Br)c2)c2c1[C@H](O)C(F)(F)C2)C(F)F` [Compound 194], the IC50 in test [1] (setting [2]) is less than 50 nM. Besides, in the test on 786-O-Hif-Luc cells (setting [3]), the EC50 lay in the range of 250 to 1000 nM.

As to `Cc1c(Oc2cc(F)cc(Cl)c2)ccc(S(=O)(=O)C(F)(F)F)c1Cl` [Compound 143], in test [1] (setting [2]), the IC50 is less than 50 nM. Further, in the test with 786-O-Hif-Luc cells (setting [3]), the EC50 was greater than 1000 nM.

As for `Cc1cncc(Oc2ccc3c(c2Br)[C@@H](O)C(F)(F)S3(=O)=O)c1` [Compound 428], the IC50 in test [1] (setting [2]) is greater than 1000 nM. In addition, the 50% effective concentration (EC50) with 786-O-Hif-Luc cells (setting [3]) was greater than 1000 nM.

Turning to `CC1(C)CCC(=O)[C@H](c2ccc(S(=O)(=O)C(F)(F)F)c3c2CC(F)(F)[C@H]3O)C1` [Compound 542], the IC50 in test [1] (setting [2]) fell in the range of 250 to 1000 nM. Also, the EC50 in the test with 786-O-Hif-Luc cells (setting [3]) is greater than 1000 nM.

Regarding `CC(C)CCOc1ccc(S(=O)(=O)C(F)(F)F)c2c1CC(F)(F)[C@H]2O` [Compound 717], the IC50 in test [1] (setting [2]) was in the range of 50 to 249 nM. The EC50 in the test with 786-O-Hif-Luc cells (setting [3]) was in the range of 50 to 249 nM.

On to `N#Cc1c(Oc2cc(F)cc(F)c2)ccc2c1C(O)C(F)S2(=O)=O` (centres unmarked) [Compound 390], for which the IC50 in test [1] (setting [2]) is greater than 1000 nM. In addition, the 50% effective concentration (EC50) with 786-O-Hif-Luc cells (setting [3]) was in the range of 250 to 1000 nM.

Consider `N#C[C@H]1C[C@H](Oc2ccc(S(=O)(=O)C(F)(F)F)c3c2CC(F)(F)[C@H]3O)C1` [Compound 786], for which the IC50 in test [1] (setting [2]) is less than 50 nM. For the same compound, the half-maximal effective concentration (EC50) in the test on 786-O-Hif-Luc cells (setting [3]) is less than 50 nM.

Regarding `N#Cc1cccc(-c2ccc(S(=O)(=O)C(F)(F)F)c3c2CC(F)(F)[C@H]3O)c1` [Compound 569], in test [1] (setting [2]), the IC50 lay in the range of 50 to 249 nM. Moreover, the EC50 in the test with 786-O-Hif-Luc cells (setting [3]) lay within 250 to 1000 nM.

With `O=S(=O)(c1ccc(Oc2c(F)ccc3[nH]ncc23)c2c1C(O)C(F)(F)C2)C(F)(F)F` (centres unmarked) [Compound 244], the IC50 in test [1] (setting [2]) lay in the range of 250 to 1000 nM. Moreover, the EC50 in the test with 786-O-Hif-Luc cells (setting [3]) is greater than 1000 nM.

Consider `OC1c2c(C(F)F)ccc(OCC(F)F)c2CC1(F)F` (centres unmarked) [Compound 586], for which the IC50 in test [1] (setting [2]) lay within 50 to 249 nM. In addition, the EC50 in the test with 786-O-Hif-Luc cells (setting [3]) was greater than 1000 nM.

Turning to `CCOC(=O)/C=C/c1c(S(=O)(=O)C(F)(F)F)ccc(Oc2cc(F)cc(C#N)c2)c1C` [Compound 148], the IC50 in test [1] (setting [2]) lay in the range of 50 to 249 nM. Moreover, in the test with 786-O-Hif-Luc cells (setting [3]), the EC50 was greater than 1000 nM.

For the compound `N#Cc1cncc(Oc2ccc(S(=O)(=O)C(F)(F)F)c3c2CCC3O)c1` (centres unmarked) [Compound 220], in test [1] (setting [2]), the IC50 lay in the range of 250 to 1000 nM. Also, in the test on 786-O-Hif-Luc cells (setting [3]), the EC50 is greater than 1000 nM.

The compound `[2H]C1(O)c2c(ccc(Oc3cc(F)cc(Cl)c3)c2C(F)F)S(=O)(=O)C1(F)F` (centres unmarked) [Compound 371] had an IC50 in test [1] (Scintillation Proximity Assay IC50 (nM)) of less than 50 nM. For the same compound, in the test on 786-O-Hif-Luc cells (read-out: Mean Luciferase EC50 (nM)), the EC50 is less than 50 nM.

As for `CS(=O)(=O)c1ccc(Oc2cc(F)cc(F)c2)c(C(F)F)c1C#N` [Compound 93], the IC50 in test [1] (setting [2]) lay within 50 to 249 nM. Moreover, the half-maximal effective concentration (EC50) with 786-O-Hif-Luc cells (setting [3]) lay within 250 to 1000 nM.

Turning to `CC(=O)N[C@H]1C[C@@H](Oc2ccc(S(=O)(=O)C(F)(F)F)c3c2CC(F)(F)[C@H]3O)C1` [Compound 725], the IC50 in test [1] (setting [2]) is greater than 1000 nM. For the same compound, the EC50 with 786-O-Hif-Luc cells (setting [3]) is greater than 1000 nM.

On to `COc1cc(F)cc(Oc2ccc3c(c2C#N)[C@@H](O)C(F)(F)S3(=O)=O)c1` [Compound 427], for which, in test [1] (setting [2]), the IC50 lay in the range of 50 to 249 nM. Further, in the test with 786-O-Hif-Luc cells (setting [3]), the EC50 is greater than 1000 nM.

Take `OC1c2c(C(F)(F)F)ccc(OCC(F)F)c2CC1(F)F` (centres unmarked) [Compound 686]: the IC50 in test [1] (setting [2]) was 50 to 249 nM. Moreover, the EC50 in the test with 786-O-Hif-Luc cells (setting [3]) lay within 50 to 249 nM.

Consider `CC1(O)c2c(ccc(Oc3cc(F)cc(F)c3)c2Br)S(=O)(=O)C1(F)F` (centres unmarked) [Compound 444], for which the IC50 in test [1] (setting [2]) lay in the range of 50 to 249 nM. Also, in the test with 786-O-Hif-Luc cells (setting [3]), the EC50 fell in the range of 250 to 1000 nM.

With `COc1c(Oc2cc(F)cc(C#N)c2)ccc2c1C(O)C(F)(F)S2(=O)=O` (centres unmarked) [Compound 433], the IC50 in test [1] (setting [2]) lay in the range of 250 to 1000 nM. Also, in the test with 786-O-Hif-Luc cells (setting [3]), the concentration giving a half-maximal response (EC50) was greater than 1000 nM.

Consider `N#Cc1cc(F)cc(Oc2ccc(S(=O)(=O)C(F)F)cc2C#N)c1` [Compound 134], for which the IC50 in test [1] (setting [2]) lay within 250 to 1000 nM. For the same compound, the EC50 in the test with 786-O-Hif-Luc cells (setting [3]) is greater than 1000 nM.

In the case of `N#Cc1cc(F)cc(Oc2ccc(S(=O)(=O)C(F)(F)F)cc2Br)c1` [Compound 118], the IC50 in test [1] (setting [2]) is 50 to 249 nM. In addition, the EC50 in the test with 786-O-Hif-Luc cells (setting [3]) was greater than 1000 nM.

For `O=S(=O)(c1ccc(Oc2cc(F)cc(F)c2)c2c1C=CC2)C(F)F` [Compound 21], the IC50 in test [1] (setting [2]) was in the range of 50 to 249 nM. In the test with 786-O-Hif-Luc cells (setting [3]), the EC50 was greater than 1000 nM.

With `O=S(=O)(c1ccc(Oc2ccc(F)c(Cl)c2)c2c1[C@H](O)C(F)(F)C2)C(F)F` [Compound 26], the IC50 in test [1] (setting [2]) was less than 50 nM. In the test with 786-O-Hif-Luc cells (setting [3]), the EC50 fell in the range of 50 to 249 nM.

On to `O=S(=O)(c1ccc(OC2CC3(COC3)C2)c2c1[C@H](O)C(F)(F)C2)C(F)(F)F` [Compound 718], for which the IC50 in test [1] (setting [2]) was 50 to 249 nM. Also, the EC50 in the test with 786-O-Hif-Luc cells (setting [3]) lay within 250 to 1000 nM.

`N#Cc1cncc(Oc2ccc(S(=O)(=O)C(F)F)c3c2CC(F)(F)[C@H]3O)c1` [Compound 27]: the half-inhibitory concentration (IC50) in test [1] (setting [2]) was 250 to 1000 nM. Further, the half-maximal effective concentration (EC50) with 786-O-Hif-Luc cells (setting [3]) lay within 50 to 249 nM.

Turning to `O=S(=O)(c1ccc(Oc2ccc(F)cc2)c2c1C(O)CC2)C(F)(F)F` (centres unmarked) [Compound 212], the IC50 in test [1] (setting [2]) is 250 to 1000 nM. For the same compound, the EC50 in the test with 786-O-Hif-Luc cells (setting [3]) was greater than 1000 nM.

On to `O=S(=O)(c1ccc(-c2ccc(Cl)cc2)c2c1[C@H](O)C(F)(F)C2)C(F)(F)F` [Compound 563], for which the IC50 in test [1] (setting [2]) fell in the range of 50 to 249 nM. Moreover, the EC50 in the test with 786-O-Hif-Luc cells (setting [3]) is 250 to 1000 nM.

For the compound `C#CCOc1ccc(S(=O)(=O)C(F)(F)F)c2c1CC(F)(F)[C@H]2O` [Compound 711], the IC50 in test [1] (setting [2]) fell in the range of 250 to 1000 nM. Besides, the EC50 in the test with 786-O-Hif-Luc cells (setting [3]) lay within 250 to 1000 nM.

Turning to `N#Cc1c(Oc2cccc(F)c2)ccc2c1[C@@H](O)CS2(=O)=O` [Compound 422], the IC50 in test [1] (setting [2]) was 250 to 1000 nM. Also, the EC50 in the test on 786-O-Hif-Luc cells (setting [3]) is 250 to 1000 nM.

With `N#CN=S1(=O)CC(O)c2c1ccc(Oc1cc(F)cc(F)c1)c2C(F)F` (centres unmarked) [Compound 394], the IC50 in test [1] (setting [2]) was greater than 1000 nM. Besides, the EC50 in the test on 786-O-Hif-Luc cells (setting [3]) was greater than 1000 nM.

In the case of `CO[C@H]1C[C@H](Oc2ccc(S(=O)(=O)C(F)(F)F)c3c2CC(F)(F)[C@H]3O)C1` [Compound 714], the IC50 in test [1] (setting [2]) was 50 to 249 nM. In addition, the EC50 in the test with 786-O-Hif-Luc cells (setting [3]) lay in the range of 250 to 1000 nM.

With `CS(=O)(=O)c1ccc(OCC2CC2)c2c1[C@H](O)C(F)(F)C2` [Compound 779], the IC50 in test [1] (setting [2]) was greater than 1000 nM. In addition, in the test with 786-O-Hif-Luc cells (setting [3]), the EC50 was greater than 1000 nM.

Take `O=S(=O)(c1ccc([C@@H]2CCC[C@@H](O)C2)c2c1[C@H](O)C(F)(F)C2)C(F)(F)F` [Compound 480, (S)-2,2-difluoro-4-((1R,3R)-3-hydroxycyclohexyl)-7-((trifluoromethyl)sulfonyl)-2,3-dihydro-1H-inden-1-ol]: the IC50 in test [1] (setting [2]) lay in the range of 50 to 249 nM. The EC50 in the test with 786-O-Hif-Luc cells (setting [3]) was 50 to 249 nM.

Regarding `C#Cc1c(Oc2cc(F)cc(C#N)c2)ccc2c1C(O)C(F)(F)S2(=O)=O` (centres unmarked) [Compound 409], the IC50 in test [1] (setting [2]) is 50 to 249 nM. For the same compound, in the test on 786-O-Hif-Luc cells (setting [3]), the concentration giving a half-maximal response (EC50) lay in the range of 50 to 249 nM.

Turning to `CS(=O)(=O)c1ccc(OC2CC(F)(F)C2)c2c1[C@H](O)C(F)(F)[C@H]2F` [Compound 575, (1S,3S)-4-(3,3-difluorocyclobutoxy)-2,2,3-trifluoro-7-(methylsulfonyl)-2,3-dihydro-1H-inden-1-ol], the IC50 in test [1] (setting [2]) is 250 to 1000 nM. The EC50 with 786-O-Hif-Luc cells (setting [3]) is greater than 1000 nM.

`C[C@@H]1Cc2c(Oc3cc(F)cc(C#N)c3)ccc(S(C)(=O)=O)c2[C@@H]1O` [Compound 301]: in test [1] (setting [2]), the IC50 was greater than 1000 nM. Further, the EC50 in the test on 786-O-Hif-Luc cells (setting [3]) is greater than 1000 nM.

For the compound `Cc1c(Oc2cc(F)cc(C#N)c2)ccc(S(=O)(=O)C(F)(F)F)c1Cl` [Compound 144], in test [1] (setting [2]), the IC50 was less than 50 nM. Moreover, in the test with 786-O-Hif-Luc cells (setting [3]), the EC50 fell in the range of 250 to 1000 nM.

Take `CS(=O)(=O)c1ccc(Oc2cc(C#N)cc(C(F)F)c2)c2c1C(O)CC2` (centres unmarked) [Compound 249]: in test [1] (setting [2]), the IC50 lay within 250 to 1000 nM. In addition, the concentration giving a half-maximal response (EC50) in the test on 786-O-Hif-Luc cells (setting [3]) was greater than 1000 nM.

On to `O=S(=O)(c1ccc(Oc2cc(Cl)c[n+]([O-])c2)c2c1[C@H](O)C(F)(F)C2)C(F)(F)F` [Compound 260], for which, in test [1] (setting [2]), the IC50 was 50 to 249 nM. Moreover, in the test with 786-O-Hif-Luc cells (setting [3]), the EC50 was in the range of 50 to 249 nM.

Source of the values: patent US10278942B2 (PELOTON THERAPEUTICS, INC., priority 2015, dated 2019).
